Test results as given in the NIST ThermoML archive (doi:10.1021/je7002918).
Numbers after ± are expanded uncertainties.

Experiment: xn = mol fraction of the nth substance listed
Conditions: 298.15 K, 101 kPa, Liquid

`CCC(C)Cl` (stereo unspecified) [2-chlorobutane] + Cc1ccc(C)cc1 gave an excess molar volume (x1 = 0.0881) of -6.5e-08 ± 1e-08 m3/mol, an excess molar volume (x1 = 0.163) of -1.26e-07 ± 1e-08 m3/mol and an excess molar volume (x1 = 0.3481) of -2.26e-07 ± 1e-08 m3/mol. For the same compound, the excess molar volume (x1 = 0.4012) was -2.48e-07 ± 1e-08 m3/mol, the excess molar volume (x1 = 0.4742) was -2.54e-07 ± 1.1e-08 m3/mol and the excess molar volume (x1 = 0.5001) was -2.58e-07 ± 1.1e-08 m3/mol. It also gave an excess molar volume (x1 = 0.5534) of -2.52e-07 ± 1.1e-08 m3/mol, an excess molar volume (x1 = 0.6264) of -2.34e-07 ± 1e-08 m3/mol and an excess molar volume (x1 = 0.6784) of -2.06e-07 ± 1e-08 m3/mol. The excess molar volume (x1 = 0.738) was -1.75e-07 ± 1e-08 m3/mol, the excess molar volume (x1 = 0.7871) was -1.46e-07 ± 1e-08 m3/mol and the excess molar volume (x1 = 0.8758) was -8.6e-08 ± 1e-08 m3/mol. It also gave an excess molar volume (x1 = 0.9179) of -5.2e-08 ± 9e-09 m3/mol.
`CC(C)(C)Cl` [2-chloro-2-methylpropane] + Cc1ccccc1 gave an excess molar volume (x1 = 0.0932) of -1.14e-07 ± 1e-08 m3/mol, an excess molar volume (x1 = 0.1243) of -1.48e-07 ± 1e-08 m3/mol and an excess molar volume (x1 = 0.1832) of -2.11e-07 ± 1e-08 m3/mol. The excess molar volume (x1 = 0.2556) was -2.75e-07 ± 1.1e-08 m3/mol, the excess molar volume (x1 = 0.3342) was -3.28e-07 ± 1.1e-08 m3/mol and the excess molar volume (x1 = 0.3895) was -3.54e-07 ± 1.2e-08 m3/mol. It also gave an excess molar volume (x1 = 0.428) of -3.68e-07 ± 1.2e-08 m3/mol, an excess molar volume (x1 = 0.4952) of -3.81e-07 ± 1.2e-08 m3/mol and an excess molar volume (x1 = 0.5467) of -3.76e-07 ± 1.2e-08 m3/mol. The excess molar volume (x1 = 0.5985) was -3.64e-07 ± 1.2e-08 m3/mol, the excess molar volume (x1 = 0.6356) was -3.53e-07 ± 1.2e-08 m3/mol and the excess molar volume (x1 = 0.6889) was -3.2e-07 ± 1.1e-08 m3/mol. For the same compound, the excess molar volume (x1 = 0.8102) was -2.26e-07 ± 1e-08 m3/mol, the excess molar volume (x1 = 0.8961) was -1.3e-07 ± 1e-08 m3/mol and the excess molar volume (x1 = 0.9405) was -7.4e-08 ± 1e-08 m3/mol.
Work on `CCC(C)Cl` (stereo unspecified) [2-chlorobutane] + Cc1ccccc1 yielded an excess molar volume (x1 = 0.0856) of -6.6e-08 ± 1e-08 m3/mol, an excess molar volume (x1 = 0.1276) of -9.6e-08 ± 1e-08 m3/mol and an excess molar volume (x1 = 0.2495) of -1.73e-07 ± 1e-08 m3/mol. The excess molar volume (x1 = 0.3441) was -2.12e-07 ± 1e-08 m3/mol, the excess molar volume (x1 = 0.4723) was -2.32e-07 ± 1e-08 m3/mol and the excess molar volume (x1 = 0.5018) was -2.34e-07 ± 1e-08 m3/mol. The excess molar volume (x1 = 0.5569) was -2.32e-07 ± 1e-08 m3/mol, the excess molar volume (x1 = 0.6025) was -2.21e-07 ± 1e-08 m3/mol and the excess molar volume (x1 = 0.6712) was -2.06e-07 ± 1e-08 m3/mol. The excess molar volume (x1 = 0.7991) was -1.46e-07 ± 1e-08 m3/mol, the excess molar volume (x1 = 0.9046) was -7.2e-08 ± 1e-08 m3/mol and the excess molar volume (x1 = 0.9432) was -4.4e-08 ± 9e-09 m3/mol.
Work on `CC(C)(C)Cl` [2-chloro-2-methylpropane] + Cc1ccc(C)cc1 yielded an excess molar volume (x1 = 0.0816) of -1.02e-07 ± 1e-08 m3/mol, an excess molar volume (x1 = 0.1212) of -1.48e-07 ± 1e-08 m3/mol and an excess molar volume (x1 = 0.1874) of -2.12e-07 ± 1e-08 m3/mol. It also gave an excess molar volume (x1 = 0.2585) of -2.68e-07 ± 1.1e-08 m3/mol, an excess molar volume (x1 = 0.308) of -3.04e-07 ± 1.1e-08 m3/mol and an excess molar volume (x1 = 0.3746) of -3.32e-07 ± 1.2e-08 m3/mol. It also gave an excess molar volume (x1 = 0.4539) of -3.56e-07 ± 1.2e-08 m3/mol, an excess molar volume (x1 = 0.5117) of -3.57e-07 ± 1.2e-08 m3/mol and an excess molar volume (x1 = 0.5918) of -3.44e-07 ± 1.2e-08 m3/mol. For the same compound, the excess molar volume (x1 = 0.6635) was -3.18e-07 ± 1.1e-08 m3/mol, the excess molar volume (x1 = 0.7516) was -2.62e-07 ± 1.1e-08 m3/mol and the excess molar volume (x1 = 0.8683) was -1.56e-07 ± 1e-08 m3/mol. The excess molar volume (x1 = 0.9321) was -8.2e-08 ± 1e-08 m3/mol.
For `CC(C)(C)Cl` [2-chloro-2-methylpropane] + Cc1cccc(C)c1, the excess molar volume (x1 = 0.0875) was -8.4e-08 ± 1e-08 m3/mol, the excess molar volume (x1 = 0.1216) was -1.16e-07 ± 1e-08 m3/mol and the excess molar volume (x1 = 0.1973) was -1.76e-07 ± 1e-08 m3/mol. It also gave an excess molar volume (x1 = 0.2724) of -2.22e-07 ± 1e-08 m3/mol, an excess molar volume (x1 = 0.3516) of -2.58e-07 ± 1.1e-08 m3/mol and an excess molar volume (x1 = 0.4307) of -2.84e-07 ± 1.1e-08 m3/mol. It also gave an excess molar volume (x1 = 0.4832) of -2.9e-07 ± 1.1e-08 m3/mol, an excess molar volume (x1 = 0.5214) of -2.94e-07 ± 1.1e-08 m3/mol and an excess molar volume (x1 = 0.5768) of -2.86e-07 ± 1.1e-08 m3/mol. The excess molar volume (x1 = 0.658) was -2.66e-07 ± 1.1e-08 m3/mol, the excess molar volume (x1 = 0.7305) was -2.38e-07 ± 1e-08 m3/mol and the excess molar volume (x1 = 0.8543) was -1.52e-07 ± 1e-08 m3/mol. The excess molar volume (x1 = 0.9112) was -9.8e-08 ± 1e-08 m3/mol.
`CC(C)(C)Cl` [2-chloro-2-methylpropane] + Cc1ccccc1C showed an excess molar volume (x1 = 0.0698) of -1.32e-07 ± 1e-08 m3/mol, an excess molar volume (x1 = 0.1023) of -1.86e-07 ± 1e-08 m3/mol and an excess molar volume (x1 = 0.1642) of -2.64e-07 ± 1.1e-08 m3/mol. For the same compound, the excess molar volume (x1 = 0.209) was -3.06e-07 ± 1.1e-08 m3/mol, the excess molar volume (x1 = 0.2653) was -3.54e-07 ± 1.2e-08 m3/mol and the excess molar volume (x1 = 0.3321) was -3.88e-07 ± 1.2e-08 m3/mol. It also gave an excess molar volume (x1 = 0.4187) of -4.22e-07 ± 1.3e-08 m3/mol, an excess molar volume (x1 = 0.4979) of -4.32e-07 ± 1.3e-08 m3/mol and an excess molar volume (x1 = 0.5984) of -4.28e-07 ± 1.3e-08 m3/mol. The excess molar volume (x1 = 0.6627) was -4.16e-07 ± 1.3e-08 m3/mol, the excess molar volume (x1 = 0.7452) was -3.72e-07 ± 1.2e-08 m3/mol and the excess molar volume (x1 = 0.8056) was -3.22e-07 ± 1.1e-08 m3/mol. For the same compound, the excess molar volume (x1 = 0.9113) was -1.88e-07 ± 1e-08 m3/mol and the excess molar volume (x1 = 0.9453) was -1.24e-07 ± 1e-08 m3/mol.
In the case of `CCC(C)Cl` (stereo unspecified) [2-chlorobutane] + c1ccccc1, the excess molar volume (x1 = 0.0696) is reported as 1e-09 ± 9e-09 m3/mol, the excess molar volume (x1 = 0.084) is reported as 2e-09 ± 9e-09 m3/mol and the excess molar volume (x1 = 0.1122) is reported as 1e-09 ± 9e-09 m3/mol. For the same compound, the excess molar volume (x1 = 0.1524) was 2e-09 ± 9e-09 m3/mol, the excess molar volume (x1 = 0.1983) was -2e-09 ± 9e-09 m3/mol and the excess molar volume (x1 = 0.2184) was -5e-09 ± 9e-09 m3/mol. The excess molar volume (x1 = 0.2744) was -5e-09 ± 9e-09 m3/mol, the excess molar volume (x1 = 0.3652) was -1.8e-08 ± 9e-09 m3/mol and the excess molar volume (x1 = 0.4665) was -2.6e-08 ± 9e-09 m3/mol. The excess molar volume (x1 = 0.5692) was -4.4e-08 ± 9e-09 m3/mol, the excess molar volume (x1 = 0.6062) was -4.8e-08 ± 9e-09 m3/mol and the excess molar volume (x1 = 0.752) was -5.4e-08 ± 9e-09 m3/mol. For the same compound, the excess molar volume (x1 = 0.8041) was -4.6e-08 ± 9e-09 m3/mol, the excess molar volume (x1 = 0.8573) was -4e-08 ± 9e-09 m3/mol and the excess molar volume (x1 = 0.9032) was -3.5e-08 ± 9e-09 m3/mol. It also gave an excess molar volume (x1 = 0.9405) of -2.5e-08 ± 9e-09 m3/mol.
Work on `CC(C)(C)Cl` [2-chloro-2-methylpropane] + c1ccccc1 yielded an excess molar volume (x1 = 0.0821) of -9.4e-08 ± 1e-08 m3/mol, an excess molar volume (x1 = 0.1115) of -1.22e-07 ± 1e-08 m3/mol and an excess molar volume (x1 = 0.2016) of -1.8e-07 ± 1e-08 m3/mol. For the same compound, the excess molar volume (x1 = 0.2989) was -2.31e-07 ± 1e-08 m3/mol, the excess molar volume (x1 = 0.314) was -2.4e-07 ± 1e-08 m3/mol and the excess molar volume (x1 = 0.3587) was -2.46e-07 ± 1e-08 m3/mol. For the same compound, the excess molar volume (x1 = 0.3959) was -2.52e-07 ± 1.1e-08 m3/mol, the excess molar volume (x1 = 0.446) was -2.58e-07 ± 1.1e-08 m3/mol and the excess molar volume (x1 = 0.5551) was -2.45e-07 ± 1e-08 m3/mol. For the same compound, the excess molar volume (x1 = 0.6721) was -2.06e-07 ± 1e-08 m3/mol, the excess molar volume (x1 = 0.7422) was -1.74e-07 ± 1e-08 m3/mol and the excess molar volume (x1 = 0.828) was -1.28e-07 ± 1e-08 m3/mol. It also gave an excess molar volume (x1 = 0.914) of -6.6e-08 ± 1e-08 m3/mol.
Compound `CCC(C)Cl` (stereo unspecified) [2-chlorobutane] + Cc1cccc(C)c1 has an excess molar volume (x1 = 0.0694) of -5.4e-08 ± 9e-09 m3/mol, an excess molar volume (x1 = 0.1004) of -7.8e-08 ± 1e-08 m3/mol and an excess molar volume (x1 = 0.139) of -9.4e-08 ± 1e-08 m3/mol. The excess molar volume (x1 = 0.2117) was -1.22e-07 ± 1e-08 m3/mol, the excess molar volume (x1 = 0.2712) was -1.43e-07 ± 1e-08 m3/mol and the excess molar volume (x1 = 0.3438) was -1.5e-07 ± 1e-08 m3/mol. It also gave an excess molar volume (x1 = 0.4061) of -1.56e-07 ± 1e-08 m3/mol, an excess molar volume (x1 = 0.4884) of -1.62e-07 ± 1e-08 m3/mol and an excess molar volume (x1 = 0.5442) of -1.62e-07 ± 1e-08 m3/mol. For the same compound, the excess molar volume (x1 = 0.601) was -1.56e-07 ± 1e-08 m3/mol, the excess molar volume (x1 = 0.7408) was -1.34e-07 ± 1e-08 m3/mol and the excess molar volume (x1 = 0.8431) was -1.06e-07 ± 1e-08 m3/mol. It also gave an excess molar volume (x1 = 0.9249) of -6.2e-08 ± 1e-08 m3/mol.
Compound `CCC(C)Cl` (stereo unspecified) [2-chlorobutane] + Cc1ccccc1C has an excess molar volume (x1 = 0.0784) of -6.6e-08 ± 1e-08 m3/mol, an excess molar volume (x1 = 0.121) of -1.12e-07 ± 1e-08 m3/mol and an excess molar volume (x1 = 0.1509) of -1.34e-07 ± 1e-08 m3/mol. It also gave an excess molar volume (x1 = 0.166) of -1.47e-07 ± 1e-08 m3/mol, an excess molar volume (x1 = 0.2243) of -2.01e-07 ± 1e-08 m3/mol and an excess molar volume (x1 = 0.314) of -2.62e-07 ± 1.1e-08 m3/mol. It also gave an excess molar volume (x1 = 0.3921) of -2.92e-07 ± 1.1e-08 m3/mol, an excess molar volume (x1 = 0.4879) of -3.1e-07 ± 1.1e-08 m3/mol and an excess molar volume (x1 = 0.5552) of -2.95e-07 ± 1.1e-08 m3/mol. It also gave an excess molar volume (x1 = 0.669) of -2.46e-07 ± 1e-08 m3/mol, an excess molar volume (x1 = 0.7282) of -2.12e-07 ± 1e-08 m3/mol and an excess molar volume (x1 = 0.8091) of -1.42e-07 ± 1e-08 m3/mol. The excess molar volume (x1 = 0.8816) was -8.6e-08 ± 1e-08 m3/mol and the excess molar volume (x1 = 0.9052) was -6.4e-08 ± 1e-08 m3/mol.
